Assays:
[1] = 100 kPa, Liquid; for viscosity: Concentric cylinders viscometry; for mass density: Vibrating tube method
[2] = xn = mol fraction of the nth substance listed; conditions: 100 kPa, Liquid, x2 = 0; for viscosity: Concentric cylinders viscometry; for mass density: Vibrating tube method

CCCCCCCO [heptan-1-ol]
[1]
Conditions | mass density [kg/m3] | viscosity [mPa·s]
293.15 K | 822.2 | 7.03
298.15 K | 818.7 | 5.92
303.15 K | 815.2 | 5.03
308.15 K | 811.6 | 4.3
313.15 K | 808 | 3.71
318.15 K | 804.4 | 3.21
323.15 K | 800.7 | 2.79

CCCCCCO [hexan-1-ol]
[1]
Conditions | mass density [kg/m3] | viscosity [mPa·s]
293.15 K | 818.7 | 5.37
298.15 K | 815.1 | 4.58
303.15 K | 811.5 | 3.94
308.15 K | 807.9 | 3.4
313.15 K | 804.2 | 2.95
318.15 K | 800.6 | 2.58
323.15 K | 796.8 | 2.26

CCCCCCO [hexan-1-ol] + CCCCOC(C)=O
[2]
Conditions | mass density [kg/m3] | viscosity [mPa·s]
293.15 K | 818.7 | 5.37
298.15 K | 815.1 | 4.58
303.15 K | 811.5 | 3.94
308.15 K | 807.9 | 3.4
313.15 K | 804.2 | 2.95
318.15 K | 800.6 | 2.58
323.15 K | 796.8 | 2.26

CCCCCCCCCO [nonan-1-ol]
[1]
Conditions | mass density [kg/m3] | viscosity [mPa·s]
293.15 K | 827.5 | 11.41
298.15 K | 824 | 9.43
303.15 K | 820.5 | 7.86
308.15 K | 817.1 | 6.61
313.15 K | 813.6 | 5.59
318.15 K | 810.1 | 4.78
323.15 K | 806.5 | 4.1

CCCCCCCCO [octan-1-ol]
[1]
Conditions | mass density [kg/m3] | viscosity [mPa·s]
293.15 K | 824.9 | 9.13
298.15 K | 821.4 | 7.62
303.15 K | 817.9 | 6.41
308.15 K | 814.4 | 5.43
313.15 K | 810.9 | 4.63
318.15 K | 807.3 | 3.98
323.15 K | 803.7 | 3.44

CCCCCCCCO [octan-1-ol] + CCCCOC(C)=O
[2]
Conditions | mass density [kg/m3] | viscosity [mPa·s]
293.15 K | 824.9 | 9.13
298.15 K | 821.4 | 7.62
303.15 K | 817.9 | 6.41
308.15 K | 814.4 | 5.43
313.15 K | 810.9 | 4.63
318.15 K | 807.3 | 3.98
323.15 K | 803.7 | 3.44
